Laboratory results taken from patent US20250345343A1, “PHARMACEUTICAL COMPOSITION FOR PREVENTION OR TREATMENT OF SOLID CANCER COMPRISING EPIDITHIODIOXOPIPERAZINE DERIVATIVE OR PHARMACEUTICALLY ACCEPTABLE SALT THEREOF” (priority 2019, published 2025).

Columns and labels:
[1] = test system: various cancer cell lines and three normal cells (MCF-10A, IMR90, and CCD-841); assay: Cell viability assay (Cell Titer-Glo), cancer cells versus normal cells; type: cell-based; conditions: 50 nM and 200 nM
Text: FIG. 5 is diagrams illustrating the cytotoxic effect of a synthetic epidithiodioxopiperazine derivative on various cancer cells and normal cells. (A) to (J) respectively illustrate the cell viability quantified by the Cell Titer-Glo assay system of breast cancer cells, lung cancer cells, stomach cancer cells, skin cancer cells, colon cancer cells, prostate cancer cells, pancreatic cancer cells, normal breast cells, normal fibroblasts, and normal epithelial cells after treating with the labelled ETP compound for 24 hours (n=3). And IC50 values are determined using a linear regression program (GraphPad Prism) and illustrated in (K).
In order to determine the IC50 value for examining cytotoxicity, the cells (2×10^5 cells/well) were aliquoted into 96-well plates and treated with the labelled compounds at various concentrations for 24 hours. The cell viability was measured using the Cell Titer-Glo Luminescence Assay Reagent Kit (Promega, G7570), and the luminescence was read using an Envision plate reader. The percentage of cell growth with respect to that in the vehicle control group (0.1% DMSO-treated cells) was calculated.

[2] = test system: MDA-MB-231, Hs-578T, A549, H460, MKN28, MKN74, SK-MEL-5, SK-MEL-28, RKO, HCT116, PC3 and Panc-1 cancer cells; assay: Colony formation assay; type: cell-based; conditions: for colony formation inhibition: low concentrations (50 nM and 200 nM), 10 days
Experimental: The cells (2×10^3 cells/well) were cultured in 6-well plates for 24 hours, and then treated with the compounds of the present invention for 2 hours. The cells were placed in fresh complete media and additionally cultured for 10 days. The cells were washed with PBS and stained with crystal violet. Blue-stained colonies were manually counted.
Among the cancer cells prepared according to Experimental Example 1, breast cancer cell lines MDA-MB-231 and Hs-578T; lung cancer cell lines A549 and H460; stomach cancer cell lines MKN28 and MKN74; skin cancer cell lines SK-MEL-5 and SK-MEL-28; colon cancer cell lines RKO and HCT116; a prostate cancer cell line PC3; and a pancreatic cancer cell line Panc-1 were treated with DMSO as a control vehicle and synthetic epidithiodioxopiperazine derivatives A2, A5, and A10.

[3] = test system: patient-derived lung adenocarcinoma tumor; assay: Patient-derived tumor xenograft experiment; type: in vivo, mice
Experimental: Animal experiments were approved by the Institutional Animal Care and Use Committee (IACUC) of Seoul National University College of Medicine and complied with ARRIVE (Animal Research: Reporting of In Vivo Experiments) guidelines. Patient-derived lung tumors were subcutaneously implanted into the backs of 4-week-old and 17-week-old NSG (NOD-scid-IL2Rgnull) and humanized NSG (HuNSG) mice, respectively. The compound represented by Chemical Formula 7 (A5, 300 mg/kg) and/or pembrolizumab (humanized anti-PD-1 antibody, 5 mg/kg) dissolved in PBS were intraperitoneally injected to the mice every 3 days for 3 weeks and every 5 days for 3 weeks, respectively. The tumors were allowed to grow for 28 days, excised, and quantified. The tumor volume was measured every 3 days using Vernier calipers and calculated using the following equation.
In the equation, a and b mean the superficial diameter of major axis and the superficial diameter of minor axis, respectively.
While the mouse models prepared by implanting a patient-derived lung adenocarcinoma tumor according to Experimental Example 10 were not treated, were treated only with a representative synthetic epidithiodioxopiperazine derivative A5, or were concurrently treated with A5 and pembrolizumab, a humanized antibody known to be used for cancer immunotherapy, the changes in volume of the tumor were periodically observed, and the results are illustrated in FIG. 15.

[4] = Cell proliferation assay (WST-1): cytotoxicity and proliferation of breast cancer cells; type: cell-based; conditions: human; up to a concentration of about 200 nM; breast cancer cells MDA-MB-231 and Hs-578T
Experimental: (§1) The cells (2×10^3 cells/well) were cultured in 96-well plates for 24 hours, and then treated with the compound of the present invention for 2 hours. The cells were placed in fresh complete media and cultured for the labelled time. For cell proliferation, the cells were treated with WST-1 reagent for 1 hour, and the absorbance of the formazan product at 450 nm was measured using a UV/VIS ELISA reader.
(§2) Among the cancer cells prepared according to Experimental Example 1, breast cancer cell lines MDA-MB-231 and Hs-578T were treated with DMSO as a control vehicle and a natural epidithiodioxopiperazine derivative gliotoxin, the cytotoxicity and proliferation rate at each concentration of the treated compound were calculated according to Experimental Example 2, and the results are illustrated in FIG. 1.

[5] = test system: breast cancer cell lines MDA-MB-231 and Hs-578T; assay: as above; type: cell-based; conditions: breast cancer cells
Experimental: as §1, §2

[6] = test system: breast cancer cell lines MDA-MB-231 and Hs-578T; assay: Migration assay (trans-well); type: cell-based; conditions: 24 hours
Experimental: The cells (2×10^5 cells/well) were cultured in 6-well plates for 24 hours, and then treated with the compounds of the present invention for 2 hours. After treatment, the cells were serum-starved by further culturing in fresh culture medium containing 0.5% FBS for 12 hours. The serum-starved cells (5×10^4 cells/well) were transferred to the upper chamber (8 μm pore size) of a 24-well trans-well culture plate (Costar) with the bottom layer pre-coated with 0.1% gelatin B (Sigma Aldrich). The lower chamber was filled with culture medium containing 20% FBS. Twenty-four hours after plating, non-migrated cells in the upper chamber were removed. After the cells which had not migrated from the upper chamber were removed, the upper chamber was fixed with methanol and stained with 0.6% hematoxylin (DAKO). The stained cells were photographed and counted. The number of migratory cells was determined by averaging the values from three wells.
Among the cancer cells prepared according to Experimental Example 1, breast cancer cell lines MDA-MB-231 and Hs-578T were treated with DMSO as a control vehicle and natural epidithiodioxopiperazine derivative gliotoxin, cell migration to the FBS-containing medium was observed and the number of migrated cells was counted according to Experimental Example 5, and the results are illustrated in FIGS. 3 and 4.

[7] = test system: breast cancer cell lines MDA-MB-231 and Hs-578T; assay: Cell cycle assay (PI staining, flow cytometry); type: cell-based; conditions: treated 2 hours, cultured 24 hours
Experimental: The cells (2×10^5 cells/well) were cultured in 6-well plates for 24 hours, and then treated with the compounds of the present invention for 2 hours. The cells were placed in fresh complete media and further cultured for 24 hours. The cells were fixed overnight in 70% ethanol at 4° C., washed with cold PBS, and re-suspended in PBS solution containing RNase A (10 μg/mL) at 37° C. for 30 minutes. The suspended cells were stained with propidium iodide (PI, 50 μg/mL, Invitrogen) for 5 minutes, and flow cytometry (FACS Calibur, BD) was performed. The cell population was analyzed using ModiFit LT software.
Among the cancer cells prepared according to Experimental Example 1, breast cancer cell lines MDA-MB-231 and Hs-578T were not treated or were treated with a natural epidithiodioxopiperazine derivative gliotoxin, the cell cycle was analyzed and the cell percentage in G1 phase was calculated according to Experimental Example 4, and the results are illustrated in FIG. 2.

Compound	non-specific cytotoxicity [1]	colony formation inhibitory effect ([2]; 50 nM)	colony formation inhibitory effect ([2]; 200 nM)	colony formation inhibition [2]	migration of breast cancer cells induced to the serum-containing medium [6]	other results
CN1C(=O)C2SSC1C(=O)N2C [A2, 5,7-dimethyl-2,3-dithia-5,7-diazabicyclo[2.2.2] octane-6,8-dione]	do not exhibit non-specific cytotoxicity	equal to or somewhat superior to that in the control vehicle-treated group	remarkably so as to be observed with the naked eye in all tested cells	efficiently inhibit colony formation		
C=CCN1C(=O)C2SSC1C(=O)N2CC=C [A5, 5,7-diallyl-2,3-dithia-5,7-diazabicyclo[2.2.2] octane-6,8-dione]	do not exhibit non-specific cytotoxicity	equal to or somewhat superior to that in the control vehicle-treated group	remarkably so as to be observed with the naked eye in all tested cells	efficiently inhibit colony formation		tumor volume over time ([3]; NSG mice, A5 300 mg/kg intraperitoneally every 3 days for 3 weeks): increase in tumor volume is suppressed; tumor size compared to untreated control group ([3]; humanized NSG mice (HuNSG), A5 300 mg/kg intraperitoneally every 3 days for 3 weeks): an effect of decreasing the tumor size is exerted; inhibiting tumor growth and decreasing tumor size, A5 alone versus pembrolizumab or A5 plus pembrolizumab ([3]; humanized NSG mice (HuNSG), pembrolizumab 5 mg/kg every 5 days for 3 weeks): superior to the pembrolizumab-treated group or the experimental group concurrently treated with A5 and pembrolizumab
O=C1N2CCCC23SSC12CCCN2C3=O [A10, 5a, 10a-dithio-octahydrodipyrrolo[1,2-a:1′,2′-d]pyrazine-5,10-dione]	do not exhibit non-specific cytotoxicity	colony formation was inhibited in most cancer cells		efficiently inhibit colony formation		
CN1C(=O)C2(Cc3cn(C45CC67SSC(CO)(C(=O)N6C4Nc4ccccc45)N(C)C7=O)c4ccccc34)SSC1(CO)C(=O)N2C (stereo not drawn) [chetomin]					significantly decreased	viability at 2 h [4]: ≥ 80%; proliferation rate compared to DMSO-treated cells ([5]; chetomin 50 nM): significantly decreased
CN1C(=O)C23CC4=CC=CC(O)C4N2C(=O)C1(CO)SS3 (stereo not drawn) [gliotoxin]					significantly decreased	viability [4]: ≥ 80%; proliferation rate compared to DMSO-treated cells ([5]; gliotoxin 100 nM): significantly decreased; increase of cell percentage in G1 phase compared to untreated group [7]: ≥ 10%
